# Laboratory results as given in US9663508B2, “Biaryl acyl-sulfonamide compounds as sodium channel inhibitors” (AMGEN INC., priority 2013, dated 2017).
# Biological target: human Nav1.7 (Homo sapiens (Human), UniProt Q15858)
# Assay: Nav 1.7 in vitro PatchXpress (PX) assay
# Format: cell-based
# Settings: not given
# human Nav1.7, sequence (Q15858 whole entry): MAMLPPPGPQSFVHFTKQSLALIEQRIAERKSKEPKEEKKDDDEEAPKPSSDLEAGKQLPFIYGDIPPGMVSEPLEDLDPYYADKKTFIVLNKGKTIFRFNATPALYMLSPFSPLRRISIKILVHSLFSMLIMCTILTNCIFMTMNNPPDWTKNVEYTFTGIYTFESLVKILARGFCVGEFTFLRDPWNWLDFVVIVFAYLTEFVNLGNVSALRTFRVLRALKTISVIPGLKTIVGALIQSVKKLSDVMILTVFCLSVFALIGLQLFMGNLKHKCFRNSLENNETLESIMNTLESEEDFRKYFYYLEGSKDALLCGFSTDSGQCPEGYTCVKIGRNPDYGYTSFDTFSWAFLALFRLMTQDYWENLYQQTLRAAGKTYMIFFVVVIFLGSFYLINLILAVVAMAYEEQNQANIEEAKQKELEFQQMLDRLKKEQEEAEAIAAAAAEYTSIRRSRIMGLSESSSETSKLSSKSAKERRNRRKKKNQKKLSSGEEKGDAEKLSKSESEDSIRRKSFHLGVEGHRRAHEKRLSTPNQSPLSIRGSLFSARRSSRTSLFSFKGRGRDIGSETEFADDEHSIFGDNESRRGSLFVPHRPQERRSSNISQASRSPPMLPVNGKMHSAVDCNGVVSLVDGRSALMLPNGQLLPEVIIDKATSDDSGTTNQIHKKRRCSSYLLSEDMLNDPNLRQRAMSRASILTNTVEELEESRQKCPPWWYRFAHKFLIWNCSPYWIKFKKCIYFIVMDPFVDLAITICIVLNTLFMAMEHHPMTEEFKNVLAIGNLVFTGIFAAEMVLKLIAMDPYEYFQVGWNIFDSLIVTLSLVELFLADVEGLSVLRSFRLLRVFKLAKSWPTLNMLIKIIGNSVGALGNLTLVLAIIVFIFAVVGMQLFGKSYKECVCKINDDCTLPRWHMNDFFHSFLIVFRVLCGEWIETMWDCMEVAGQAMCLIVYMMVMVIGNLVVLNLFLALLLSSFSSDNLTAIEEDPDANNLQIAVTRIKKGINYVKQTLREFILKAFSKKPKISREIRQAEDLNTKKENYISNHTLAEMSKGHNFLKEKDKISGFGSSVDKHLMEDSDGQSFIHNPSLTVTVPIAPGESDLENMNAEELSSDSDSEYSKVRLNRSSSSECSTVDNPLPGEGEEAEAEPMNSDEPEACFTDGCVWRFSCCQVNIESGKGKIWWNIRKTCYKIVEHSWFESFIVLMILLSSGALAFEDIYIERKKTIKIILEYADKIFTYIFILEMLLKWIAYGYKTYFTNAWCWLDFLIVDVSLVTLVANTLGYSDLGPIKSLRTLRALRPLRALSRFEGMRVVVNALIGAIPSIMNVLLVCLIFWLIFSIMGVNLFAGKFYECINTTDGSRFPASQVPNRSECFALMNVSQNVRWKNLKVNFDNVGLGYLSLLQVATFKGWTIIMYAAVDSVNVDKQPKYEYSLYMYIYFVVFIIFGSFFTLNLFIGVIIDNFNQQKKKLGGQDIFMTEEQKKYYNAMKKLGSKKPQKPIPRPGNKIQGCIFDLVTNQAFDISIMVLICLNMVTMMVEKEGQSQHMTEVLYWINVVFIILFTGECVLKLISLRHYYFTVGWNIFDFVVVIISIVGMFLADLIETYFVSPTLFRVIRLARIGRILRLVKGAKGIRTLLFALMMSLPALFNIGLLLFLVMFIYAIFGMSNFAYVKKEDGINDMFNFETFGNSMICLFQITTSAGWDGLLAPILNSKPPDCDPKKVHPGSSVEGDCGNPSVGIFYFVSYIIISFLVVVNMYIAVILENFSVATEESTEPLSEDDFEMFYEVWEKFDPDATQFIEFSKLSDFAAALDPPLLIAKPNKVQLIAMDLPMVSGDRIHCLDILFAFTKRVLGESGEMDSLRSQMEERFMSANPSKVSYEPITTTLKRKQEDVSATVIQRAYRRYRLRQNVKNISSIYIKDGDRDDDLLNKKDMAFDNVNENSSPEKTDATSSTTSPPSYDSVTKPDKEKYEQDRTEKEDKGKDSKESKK
row,SMILES,IC50
1,"Cc1ccc(Oc2ncc(-c3ccc(C(=O)NS(C)(=O)=O)cc3OC(F)F)cc2Cl)c(Cl)c1 [Example 465, 4-(5-chloro-6-(2-chloro-4-methylphenoxy)-3-pyridinyl)-3-(difluoromethoxy)-N-(methylsulfonyl)benzamide]",69.7 nM
2,"Cc1ccc(Oc2ncc(-c3cc(F)c(C(=O)NS(C)(=O)=O)cc3F)cc2Cl)c(F)c1F [Example 569, 4-(5-chloro-6-(2,3-difluoro-4-methylphenoxy)-3-pyridinyl)-2,5-difluoro-N-(methylsulfonyl)benzamide]",60 nM
3,"COc1cc(C(=O)NS(C)(=O)=O)ccc1-c1cnc(OCCc2ccccc2)c(C#N)c1 [Example 539, 4-(5-cyano-6-(2-phenylethoxy)-3-pyridinyl)-3-methoxy-N-(methylsulfonyl)benzamide]",94.2 nM
4,"COc1cc(C(=O)NS(C)(=O)=O)ccc1-c1cnc(Oc2ccc(C)cc2Cl)c(Cl)c1 [Example 344, 4-(5-chloro-6-(2-chloro-4-methylphenoxy)-3-pyridinyl)-3-methoxy-N-(methylsulfonyl)benzamide]",91.5 nM
5,"COc1cc(C(=O)NS(C)(=O)=O)ccc1-c1cnc(Oc2cccc(F)c2F)c(Cl)c1 [Example 402, 4-(5-chloro-6-(2,3-difluorophenoxy)-3-pyridinyl)-3-methoxy-N-(methylsulfonyl)benzamide]",80 nM
6,"COc1cc(C(=O)NS(C)(=O)=O)ccc1-c1cnc(Oc2cc(Cl)ccc2Cl)c(Cl)c1 [Example 582, 4-(5-chloro-6-(2,5-dichlorophenoxy)-3-pyridinyl)-3-methoxy-N-(methylsulfonyl)benzamide]",61.4 nM
7,"COc1cc(C(=O)NS(C)(=O)=O)ccc1-c1cnc(Oc2c(C)cccc2Cl)c(Cl)c1 [Example 327, 4-(5-chloro-6-(2-chloro-6-methylphenoxy)-3-pyridinyl)-3-methoxy-N-(methylsulfonyl)benzamide]",82.3 nM
8,"COc1ccc(Cl)c(Oc2ncc(-c3ccc(C(=O)NS(C)(=O)=O)cc3OC)cc2Cl)c1 [Example 369, 4-(5-chloro-6-(2-chloro-5-methoxyphenoxy)-3-pyridinyl)-3-methoxy-N-(methylsulfonyl)benzamide]",90.5 nM
9,"COc1cc(C(=O)NS(C)(=O)=O)ccc1-c1cnc(Oc2ccc(C)c(Cl)c2)c(C#N)c1 [Example 549, 4-(6-(3-chloro-4-methylphenoxy)-5-cyano-3-pyridinyl)-3-methoxy-N-(methylsulfonyl)benzamide]",50.5 nM
10,"Cc1cc(C(=O)NS(C)(=O)=O)c(F)cc1-c1cnc(Oc2ccc(Cl)cc2C(F)(F)F)c(Cl)c1 [Example 679, 4-(5-chloro-6-(4-chloro-2-(trifluoromethyl)phenoxy)-3-pyridinyl)-2-fluoro-5-methyl-N-(methylsulfonyl)benzamide]",87.5 nM
11,"COc1cc(C(=O)NS(C)(=O)=O)ccc1-c1cnc(Oc2cc(Cl)ccc2C)c(Cl)c1 [Example 379, 4-(5-chloro-6-(5-chloro-2-methylphenoxy)-3-pyridinyl)-3-methoxy-N-(methylsulfonyl)benzamide]",54.6 nM
12,"COc1cc(C(=O)NS(C)(=O)=O)ccc1-c1cnc(Oc2ccc(C)c(Cl)c2)c(Cl)c1 [Example 329, 4-(5-chloro-6-(3-chloro-4-methylphenoxy)-3-pyridinyl)-3-methoxy-N-(methylsulfonyl)benzamide]",84.7 nM
13,"Cc1cc(C(=O)NS(C)(=O)=O)c(F)cc1-c1cnc(Oc2ccc(OC(C)C)cc2)c(Cl)c1 [Example 663, 4-(5-chloro-6-(4-(1-methylethoxy)phenoxy)-3-pyridinyl)-2-fluoro-5-methyl-N-(methylsulfonyl)benzamide]",108 nM

# Same assay, conditions: in-vitro Nav 1.7 PX data
row,SMILES,IC50
1,"COc1cc(C(=O)NS(C)(=O)=O)c(F)cc1-c1cnc(Oc2cccc(C)c2Cl)c(Cl)c1 [Example 760, 4-(5-chloro-6-(2-chloro-3-methylphenoxy)-3-pyridinyl)-2-fluoro-5-methoxy-N-(methylsulfonyl)benzamide]",62.4 nM
2,"Cc1cc(C(=O)NS(C)(=O)=O)c(F)cc1-c1ccc(Cl)c(C(F)(F)F)c1 [Example 806, 4′-Chloro-5-Fluoro-2-Methyl-N-(Methylsulfonyl)-3′-(Trifluoromethyl)-4-Biphenylcarboxamide]",618 nM
3,"COc1cc(C(=O)NS(C)(=O)=O)c(F)cc1-c1cnc(Oc2cc3ccccc3cc2Cl)c(Cl)c1 [Example 715, 4-(5-chloro-6-((3-chloro-2-naphthalenyl)oxy)-3-pyridinyl)-2-fluoro-5-methoxy-N-(methylsulfonyl)benzamide]",98.8 nM
4,"COc1cc(C(=O)NS(C)(=O)=O)c(F)cc1-c1cnc(O[C@H](C)C2CCC2)c(Cl)c1 (single isomer, unassigned) [Example 769]",50 nM
5,"COc1cc(C(=O)NS(C)(=O)=O)c(F)cc1-c1cnc(N[C@@H]2CC23CCCC3)c(Cl)c1 [Example 720, 4-(5-chloro-6-((1R)-spiro[2.4]hept-1-ylamino)-3-pyridinyl)-2-fluoro-5-methoxy-N-(methylsulfonyl)benzamide, 4-(5-chloro-6-((1S)-spiro[2.4]hept-1-ylamino)-3-pyridinyl)-2-fluoro-5-methoxy-N-(methylsulfonyl)benzamide]",84.4 nM
6,"COc1cc(C(=O)NS(C)(=O)=O)c(F)cc1-c1cnc(Oc2ccc(C)c(F)c2F)c(Cl)c1 [Example 746, 4-(5-chloro-6-(2,3-difluoro-4-methylphenoxy)-3-pyridinyl)-2-fluoro-5-methoxy-N-(methylsulfonyl)benzamide]",62.8 nM
7,"CS(=O)(=O)NC(=O)c1ccc(-c2cnc(Oc3cc(Cl)cc(Cl)c3)c(Cl)c2)c(Cl)c1 [Example 777, 3-chloro-4-(5-chloro-6-(3,5-dichlorophenoxy)-3-pyridinyl)-N-(methylsulfonyl)benzamide]",40 nM
8,"Cc1cc(C(=O)NS(C)(=O)=O)c(F)cc1-c1cnc(OC(C)(C)C)c(Cl)c1 [Example 816, 4-(6-tert-butoxy-5-chloro-3-pyridinyl)-2-fluoro-5-methyl-N-(methylsulfonyl)benzamide]",156 nM
9,"COc1cc(C(=O)NS(C)(=O)=O)c(F)cc1-c1cnc(Oc2c(Cl)cccc2Cl)c(Cl)c1 [Example 764, 4-(5-chloro-6-(2,6-dichlorophenoxy)-3-pyridinyl)-2-fluoro-5-methoxy-N-(methylsulfonyl)benzamide]",36.7 nM
10,"COc1cc(C(=O)NS(C)(=O)=O)c(F)cc1-c1cnc(OCC2(C)CCCCC2)c(Cl)c1 [Example 714, 4-(5-chloro-6-((1-methylcyclohexyl)methoxy)-3-pyridinyl)-2-fluoro-5-methoxy-N-(methylsulfonyl)benzamide]",98.6 nM
11,"COc1cc(C(=O)NS(=O)(=O)N2CCC2)ccc1-c1cnc(Oc2cc(Cl)cc(Cl)c2)c(Cl)c1 [Example 773, N-(1-azetidinylsulfonyl)-4-(5-chloro-6-(3,5-dichlorophenoxy)-3-pyridinyl)-3-methoxybenzamide]",114 nM
12,"COc1cc(C(=O)NS(C)(=O)=O)c(F)cc1-c1cnc(Oc2ccc(F)c3c2CCC3)c(Cl)c1 [Example 757, 4-(5-chloro-6-((7-fluoro-2,3-dihydro-1H-inden-4-yl)oxy)-3-pyridinyl)-2-fluoro-5-methoxy-N-(methylsulfonyl)benzamide]",47.7 nM
13,"COc1cc(C(=O)NS(C)(=O)=O)c(F)cc1-c1cnc(Oc2cc(F)ccc2F)c(Cl)c1 [Example 706, 4-(5-chloro-6-(2,5-difluorophenoxy)-3-pyridinyl)-2-fluoro-5-methoxy-N-(methylsulfonyl)benzamide]",130 nM
14,"CS(=O)(=O)NC(=O)c1cc(OC(F)F)c(-c2cnc(Oc3cc(Cl)cc(Cl)c3)c(Cl)c2)cc1F [Example 784, 4-(5-chloro-6-(3,5-dichlorophenoxy)-3-pyridinyl)-5-(difluoromethoxy)-2-fluoro-N-(methylsulfonyl)benzamide]",14 nM
15,"COc1cc(C(=O)NS(C)(=O)=O)c(F)cc1-c1cnc(NCCC2CCCC2)c(Cl)c1 [Example 731, 4-(5-chloro-6-((2-cyclopentylethyl)amino)-3-pyridinyl)-2-fluoro-5-methoxy-N-(methylsulfonyl)benzamide]",106 nM
16,"CC(C)C1CCCN1c1ncc(-c2ccc(C(=O)NS(C)(=O)=O)cc2OC(F)F)cc1Cl (racemic) [compound 833, 4-(5-Chloro-6-(2-Isopropylpyrrolidin-1-yl)Pyridin-3-yl)-3-(Difluoromethoxy)-N-(Methylsulfonyl)Benzamide]",72.1 nM
17,"COc1cc(C(=O)NS(C)(=O)=O)c(F)cc1-c1cnc(Oc2ccc(Cl)cc2F)c(Cl)c1 [Example 753, 4-(5-chloro-6-(4-chloro-2-fluorophenoxy)-3-pyridinyl)-2-fluoro-5-methoxy-N-(methylsulfonyl)benzamide]",36.9 nM
18,"CS(=O)(=O)NC(=O)c1cc(OC(F)F)c(-c2cnc(Oc3c(F)ccc(F)c3F)c(Cl)c2)cc1F [Example 785, 4-(5-chloro-6-(2,3,6-trifluorophenoxy)-3-pyridinyl)-5-(difluoromethoxy)-2-fluoro-N-(methylsulfonyl)benzamide]",73.3 nM
19,"COc1cc(C(=O)NS(C)(=O)=O)c(F)cc1-c1cnc(Oc2cccc(Cl)c2)c(Cl)c1 [Example 765, 4-(5-chloro-6-(3-chlorophenoxy)-3-pyridinyl)-2-fluoro-5-methoxy-N-(methylsulfonyl)benzamide]",84.9 nM
20,"COc1cc(C(=O)NS(C)(=O)=O)c(F)cc1-c1cnc(Oc2cccc(Cl)c2F)c(Cl)c1 [Example 745, 4-(5-chloro-6-(3-chloro-2-fluorophenoxy)-3-pyridinyl)-2-fluoro-5-methoxy-N-(methylsulfonyl)benzamide]",72.5 nM
21,"Cc1cc(C(=O)NS(C)(=O)=O)c(F)cc1-c1cnc(Oc2cc(Cl)cc(Cl)c2)c(C(F)F)c1 [Example 823, 4-(6-(3,5-Dichlorophenoxy)-5-(Difluoromethyl)Pyridin-3-yl)-2-Fluoro-5-Methyl-N-(Methyl Sulfonyl)Benzamide]",179 nM
22,"Cc1cc(C(=O)NS(C)(=O)=O)c(F)cc1-c1cnc(NC(C)(C)C)c(Cl)c1 [Example 815, 4-(6-(tert-butylamino)-5-chloro-3-pyridinyl)-2-fluoro-5-methyl-N-(methylsulfonyl)benzamide]",231 nM
23,"CCS(=O)(=O)NC(=O)c1ccc(-c2cnc(Oc3cccc(Cl)c3C)c(Cl)c2)c(OC)c1 [Example 789, 4-(5-chloro-6-(3-chloro-2-methylphenoxy)-3-pyridinyl)-N-(ethylsulfonyl)-3-methoxybenzamide]",66.9 nM
